Assay results as given in US8853230B2, “Inhibitors of JAK” (Portola Pharmaceuticals, Inc., priority 2009, dated 2014).

Assays:
Format in all cases: biochemical
JAK2 = target: T1, JAK2 (Homo sapiens, UniProt O60674); experiment: Z'-LYTE kinase assay, JAK2 tyrosine phosphorylation activity
T1 construct: 5 μl of catalytic domain recombinant Kinase enzyme+Tyr peptide substrate (Invitrogen, Calif.); purchased Invitrogen
Description: (§1) JAK and TYK2 tyrosine phosphorylation activity is measured using the Z′-LYTE™ Technology developed by Invitrogen Corporation (Carlsbad, Calif.). For JAK1, JAK2 and JAK3 the Z′-LYTE™ Kinase Assay Kit-Tyr6 Peptide (part number PV4122) was used. For TYK2 the Z′-LYTE™ Kinase Assay Kit-Tyr6 Peptide (part number PV3192) was used. The Z′-LYTE™ biochemical assay employs a fluorescence resonance energy transfer (FRET) coupled-enzyme format and is based on the differential sensitivity of phosphorylated and non-phosphorylated peptides to proteolitic cleavage. The assay uses a synthetic peptide substrate that is labelled with a donor fluorophore (coumarin) and an acceptor fluorophore (fluorescein) that make up a FRET pair. In the primary reaction (the Kinase Reaction), the kinase transfers the γ-phosphate of ATP to a single tyrosine residue on the substrate, while the presence of a kinase inhibitor in the primary reaction suppresses phosphorylation. In the secondary reaction (the Development Reaction), a site-specific protease (the Development Reagent) is added. The development buffer quenches the Kinase Reaction, while the protease recognizes and cleaves non-phosphorylated Z′-LYTE™ peptide substrate. Cleavage disrupts FRET between the donor and acceptor fluorophores on the non-phosphoryleted substrate, while uncleaved, phosphorylated substrate maintains FRET.
(§2) To test the ability of candidate molecules to inhibit JAK tyrosine phosphorylation activity, molecules are reconstituted in 100% DMSO and serially diluted 1:10 in polypropylene v-bottom microtiter plates. The candidate molecules are then diluted 1:25 into kinase buffer and 2.5 μl transferred into duplicate wells of a 384 well low volume black microtiter assay plate (Corning, USA). The final DMSO concentration in the assay is 1%. The kinase reaction contains 2.5 μl of a candidate molecule, 5 μl of catalytic domain recombinant Kinase enzyme+Tyr peptide substrate (Invitrogen, Calif.) and 2.5 μl ATP (Invitrogen, Calif.). The kinase reaction is allowed to procede for 1 hour at room temperature. The protease reaction is initiated by the addition of 5 μl Development Reagent (Invitrogen, Calif.). After 1 hour incubation at room temperature the fluorescence is measured using a FlexStation plate reader (Molecular Devices, Sunnyvale, Calif.). The reader settings used are as follows: Fluorescence mode, endpoint, top read, excitation 400 nm, emission 445 nm and 520 nm, Auto Cutoff 435 nm and 515 nm, PMT sensitivity high, 6 reads per well. Inhibition of JAK activity is calculated as the percent phosphorylation of substrate in the presence of inhibitor compared to the percent phosphorylation of substrate in the absence of inhibitor. IC50's were derived using Xlfit 4.3 (IDBS, UK), 4 parameter logistic model 205: Y=(A+((B−A)/(1+((C/x)^D)))).

TYK2 = target: T2, TYK2 (Homo sapiens, UniProt P29597); experiment: Z'-LYTE kinase assay, TYK2 tyrosine phosphorylation activity
T2 construct: 5 μl of catalytic domain recombinant Kinase enzyme+Tyr peptide substrate (Invitrogen, Calif.); purchased Invitrogen
T2 sequence (P29597 897-1176 limits assumed): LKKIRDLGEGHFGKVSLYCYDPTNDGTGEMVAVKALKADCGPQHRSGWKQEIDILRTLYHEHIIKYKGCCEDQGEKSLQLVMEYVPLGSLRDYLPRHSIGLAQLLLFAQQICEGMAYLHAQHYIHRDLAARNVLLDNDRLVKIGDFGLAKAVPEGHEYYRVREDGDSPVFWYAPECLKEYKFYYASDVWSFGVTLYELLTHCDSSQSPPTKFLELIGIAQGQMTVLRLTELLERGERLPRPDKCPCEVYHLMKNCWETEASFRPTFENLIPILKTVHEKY
Description: as §1, §2

JAK1 = target: T3, JAK1 (Homo sapiens, UniProt P23458); experiment: Z'-LYTE kinase assay, JAK1 tyrosine phosphorylation activity; conditions: read-out: JAK 1 IC50
T3 construct: 5 μl of catalytic domain recombinant Kinase enzyme+Tyr peptide substrate (Invitrogen, Calif.); purchased Invitrogen
Description: as §1, §2

JAK3 = target: T4, JAK3 (Homo sapiens, UniProt P52333); experiment: Z'-LYTE kinase assay, JAK3 tyrosine phosphorylation activity
T4 construct: 5 μl of catalytic domain recombinant Kinase enzyme+Tyr peptide substrate (Invitrogen, Calif.); purchased Invitrogen
Description: as §1, §2

T3 sequence (P23458 875-1153 limits assumed): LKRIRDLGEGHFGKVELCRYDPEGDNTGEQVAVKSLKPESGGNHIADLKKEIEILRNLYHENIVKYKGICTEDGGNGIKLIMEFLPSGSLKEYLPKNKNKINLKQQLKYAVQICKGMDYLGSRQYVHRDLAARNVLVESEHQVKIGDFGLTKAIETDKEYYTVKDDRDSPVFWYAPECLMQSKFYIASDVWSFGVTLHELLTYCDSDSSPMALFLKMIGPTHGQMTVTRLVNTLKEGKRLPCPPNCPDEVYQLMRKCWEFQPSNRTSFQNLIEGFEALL
T4 sequence (P52333 822-1111 limits assumed): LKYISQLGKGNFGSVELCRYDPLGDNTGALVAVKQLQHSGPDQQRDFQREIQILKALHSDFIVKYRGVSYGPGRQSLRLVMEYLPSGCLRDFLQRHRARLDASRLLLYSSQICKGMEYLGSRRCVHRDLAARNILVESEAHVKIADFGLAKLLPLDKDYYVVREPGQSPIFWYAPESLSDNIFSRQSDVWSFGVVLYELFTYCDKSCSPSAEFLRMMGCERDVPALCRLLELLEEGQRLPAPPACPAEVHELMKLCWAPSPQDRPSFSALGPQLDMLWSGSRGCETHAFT
T1 sequence (O60674 849-1124 limits assumed): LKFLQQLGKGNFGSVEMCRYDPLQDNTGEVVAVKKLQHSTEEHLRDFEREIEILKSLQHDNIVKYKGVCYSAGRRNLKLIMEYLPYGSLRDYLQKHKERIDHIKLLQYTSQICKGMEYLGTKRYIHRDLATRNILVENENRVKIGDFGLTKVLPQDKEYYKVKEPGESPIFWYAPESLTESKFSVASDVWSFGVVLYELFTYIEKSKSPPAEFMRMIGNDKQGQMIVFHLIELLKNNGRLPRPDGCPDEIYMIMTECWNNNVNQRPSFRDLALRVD

| IC50 (JAK2) [nM] | IC50 (TYK2) [nM] | IC50 (JAK1) [nM] | IC50 (JAK3) [nM] | Compound |
| --- | --- | --- | --- | --- |
| 100 to 1000 | 100 to 1000 | > 1000 | 10 to 100 | C[C@@H](Nc1nc(Nc2ccc(Cl)c(NC(=O)N3CCCCC3)c2)ncc1C(N)=O)c1ccccc1 [Example 205, (R)-2-(4-chloro-3-(piperidine-1-carboxamido)phenylamino)-4-(1-phenylethylamino)pyrimidine-5-carboxamide] |
| 100 to 1000 | 100 to 1000 | 100 to 1000 | 10 to 100 | CC(=O)Nc1cccc(Nc2ncc(C(N)=O)c(N[C@@H](CO)c3ccccc3)n2)c1 [Example 98, (R)-2-(3-acetamidophenylamino)-4-(2-hydroxy-1-phenylethylamino)pyrimidine-5-carboxamide] |
| 1 to 10 | 10 to 100 | 10 to 100 | 1 to 10 | CC(=O)Nc1cc(Nc2ncc(C(N)=O)c(Nc3cccc4nsnc34)n2)ccc1OCCN(C)C [Example 230, 2-(3-acetamido-4-(2-(dimethylamino)ethoxy)phenylamino)-4-(benzo[c][1,2,5]thiadiazo-4-ylamino)pyrimidine-5-carboxamide] |
| 1 to 10 | 1 to 10 | 1 to 10 | < 1 | CC[C@@H](C)Nc1nc(Nc2cccc(NC(C)=O)c2)ncc1C(N)=O [Example 238, (R)-2-(3-acetamidophenylamino)-4-(sec-butylamino)pyrimidine-5-carboxamide] |
| 10 to 100 | 10 to 100 | > 1000 | 1 to 10 | CNC(=O)Nc1cc(Nc2ncc(C(N)=O)c(NCc3ccccc3)n2)ccc1F [Example 158, 4-(benzylamino)-2-(4-fluoro-3-(3-methylureido)phenylamino)pyrimidine-5-carboxamide] |
| 100 to 1000 | 100 to 1000 | 100 to 1000 | 10 to 100 | CC(=O)Nc1cccc(Nc2cc(N[C@H](C)c3ccccc3)c(C(N)=O)cn2)c1 [Example 322, (R)-6-(3-acetamidophenylamino)-4-(1-phenylethylamino)nicotinamide] |
| 10 to 100 | 10 to 100 | 10 to 100 | 1 to 10 | CCNc1nc(Nc2cccc(NC(=O)N3CCCC3)c2)ncc1C(N)=O [Example 134, 4-(ethylamino)-2-(3-(pyrrolidine-1-carboxamido)phenylamino)pyrimidine-5-carboxamide] |
| 10 to 100 | 10 to 100 | 10 to 100 | 1 to 10 | CC(=O)Nc1cc(Nc2ncc(C(N)=O)c(NCc3ccccc3)n2)ccc1Cl [Example 2, 2-(3-acetamido-4-chlorophenylamino)-4-(benzylamino)pyrimidine-5-carboxamide] |
| 10 to 100 | 1 to 10 | 10 to 100 | 1 to 10 | CC(=O)Nc1cccc(Nc2ncc(C(N)=O)c(NCCC(C)C)n2)c1 [Example 251, 2-(3-acetamidophenylamino)-4-(isopentylamino)pyrimidine-5-carboxamide] |
| 10 to 100 | 100 to 1000 | 100 to 1000 | 1 to 10 | CC(=O)N(c1cccc(Nc2ncc(C(N)=O)c(N[C@H](C)c3ccccc3)n2)c1)C1CC1 [Example 161, (R)-2-(3-(N-cyclopropylacetamido)phenylamino)-4-(1-phenylethylamino)pyrimidine-5-carboxamide] |
| 1 to 10 | 1 to 10 | 10 to 100 | < 1 | CCC(C)CNc1nc(Nc2cccc(NC(C)=O)c2)ncc1C(N)=O (centres unmarked) [Example 249, 2-(3-acetamidophenylamino)-4-(2-methylbutylamino)pyrimidine-5-carboxamide] |
| > 1000 | 100 to 1000 | > 1000 | 100 to 1000 | COCC(=O)N(c1cccc(Nc2ncc(C(N)=O)c(NCc3ccccc3)n2)c1)C1CC1 [Example 150, 4-(benzylamino)-2-(3-(N-cyclopropyl-2-methoxyacetamido)phenylamino)pyrimidine-5-carboxamide] |
| 10 to 100 | 1 to 10 | 10 to 100 | 1 to 10 | CC(=O)Nc1cccc(Nc2ncc(C(N)=O)c(NCC3CCC3)n2)c1 [Example 262, 2-(3-acetamidophenylamino)-4-(cyclobutylmethylamino)pyrimidine-5-carboxamide] |
| 10 to 100 | 10 to 100 | 100 to 1000 | 1 to 10 | C[C@@H](Nc1nc(Nc2cccc(NC(=O)N3CCCCC3)c2)ncc1C(N)=O)c1ccccc1 [Example 220, (R)-4-(1-phenylethylamino)-2-(3-(piperidine-1-carboxamido)phenylamino)pyrimidine-5-carboxamide] |
| > 1000 | > 1000 | > 1000 | 100 to 1000 | CN(C(=O)N1CCCC1)c1cc(Nc2ncc(C(N)=O)c(NCc3cccc(F)c3)n2)ccc1Cl [Example 242, 2-(4-chloro-3-(N-methylpyrrolidine-1-carboxamido)phenylamino)-4-(3-fluorobenzylamino)pyrimidine-5-carboxamide] |
| > 1000 | 100 to 1000 | > 1000 | 100 to 1000 | CC(=O)Nc1cccc(Nc2cc(NC3Cc4ccccc4C3)c(C(N)=O)cn2)c1 [Example 333, 6-(3-acetamidophenylamino)-4-(2,3-dihydro-1H-inden-2-ylamino)nicotinamide] |
| 10 to 100 | 10 to 100 | 10 to 100 | 10 to 100 | COCC(=O)N(C)c1cccc(Nc2ncc(C(N)=O)c(NCC3CC3)n2)c1 [Example 125, 4-(cyclopropylmethylamino)-2-(3-(2-methoxy-N-methylacetamido)phenylamino)pyrimidine-5-carboxamide] |
| > 1000 | 100 to 1000 | > 1000 | 10 to 100 | CN(C)C(=O)Nc1ccc(F)c(Nc2ncc(C(N)=O)c(NCc3ccccc3)n2)c1 [Example 201, 4-(benzylamino)-2-(5-(3,3-dimethylureido)-2-fluorophenylamino)pyrimidine-5-carboxamide] |
| 100 to 1000 | 10 to 100 | 100 to 1000 | 10 to 100 | CC[C@H](C)Nc1nc(Nc2ccc(Cl)c(NC(=O)NC)c2)ncc1C(N)=O [Example 175, (S)-4-(sec-butylamino)-2-(4-chloro-3-(3-methylureido)phenylamino)pyrimidine-5-carboxamide] |
| 10 to 100 | 10 to 100 | 10 to 100 | 10 to 100 | CC(=O)Nc1cccc(Nc2ncc(C(N)=O)c(N[C@@H](C)C(C)C)n2)c1 [Example 247, (S)-2-(3-acetamidophenylamino)-4-(3-methylbutan-2-ylamino)pyrimidine-5-carboxamide] |
| 10 to 100 | 10 to 100 | 10 to 100 | 10 to 100 | CC(C)CNc1nc(Nc2ccc(Cl)c(NC(=O)N3CCCC3)c2)ncc1C(N)=O [Example 236, 2-(4-chloro-3-(pyrrolidine-1-carboxamido)phenylamino)-4-(isobutylamino)pyrimidine-5-carboxamide] |
| 10 to 100 | 10 to 100 | 10 to 100 | 1 to 10 | CC(=O)Nc1cccc(Nc2ncc(C(N)=O)c(NCc3cccc(F)c3F)n2)c1 [Example 95, 2-(3-acetamidophenylamino)-4-(2,3-difluorobenzylamino)pyrimidine-5-carboxamide] |
| 10 to 100 | 10 to 100 | 100 to 1000 | 1 to 10 | CC(=O)Nc1cccc(Nc2ncc(C(N)=O)c(NCc3cc(F)ccc3F)n2)c1 [Example 102, 2-(3-acetamidophenylamino)-4-(2,5-difluorobenzylamino)pyrimidine-5-carboxamide] |
